# Measurements taken from the supplement of paper PMC10307832.
# Experiments:
# Assay in all cases: relative viability (nuclei count vs DMSO), 5 days (fraction); higher = more cells survive
# NCI-H1915 = test system: NCI-H1915
# Procedure, shortened: (§1)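 The day after seeding in 1536-well plates, lung cancer cell lines were treated by pin tool with a single drug, or with a fixed anchor-drug dose together with five library-drug doses (not always all listed) in √10 steps. After 5 days, a combined fix-and-stain solution (final 0.05% Triton X-100, 1% formaldehyde, 1 ug/ml Hoechst) was added. Nuclei counted on 4× images gave relative viability as treated counts over vehicle counts, reported as the median of duplicate plates.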
# NCI-H647 = test system: NCI-H647
# Procedure, shortened: as §1
# SK-LU-1 = test system: SK-LU-1
# Procedure, shortened: as §1
# PC-3 [JPC-3] = test system: PC-3 [JPC-3]
# Procedure, shortened: as §1
# NCI-H1755 = test system: NCI-H1755
# Procedure, shortened: as §1
# HCC-15 = test system: HCC-15
# Procedure, shortened: as §1
# NCI-H2228 = test system: NCI-H2228
# Procedure, shortened: as §1
# NCI-H2347 = test system: NCI-H2347
# Procedure, shortened: as §1
# SW 1573 = test system: SW 1573
# Procedure, shortened: as §1
# LC-2-ad = test system: LC-2-ad
# Procedure, shortened: as §1
# LXF-289 = test system: LXF-289
# Procedure, shortened: as §1
# NCI-H2126 = test system: NCI-H2126
# Procedure, shortened: as §1
# RERF-LC-KJ = test system: RERF-LC-KJ
# Procedure, shortened: as §1
# NCI-H1734 = test system: NCI-H1734
# Procedure, shortened: as §1
# NCI-H1792 = test system: NCI-H1792
# Procedure, shortened: as §1
# NCI-H1975 = test system: NCI-H1975
# Procedure, shortened: as §1
# HOP-62 = test system: HOP-62
# Procedure, shortened: as §1
# A-427 = test system: A-427
# Procedure, shortened: as §1
# HCC-78 = test system: HCC-78
# Procedure, shortened: as §1
smiles,measurement,setting,value
Cc1sc2c(c1C)C(c1ccc(Cl)cc1)=N[C@@H](CC(=O)OC(C)(C)C)c1nnc(C)n1-2 [JQ1] + CC1(C)CCC(c2ccc(Cl)cc2)=C(CN2CCN(c3ccc(C(=O)NS(=O)(=O)c4ccc(N[C@H](CCN5CCOCC5)CSc5ccccc5)c(S(=O)(=O)C(F)(F)F)c4)cc3)CC2)C1 [Navitoclax] (partner 0.5 µM),relative viability,NCI-H1915; first compound 0.04 µM,0.781
same,relative viability,NCI-H1915; first compound 0.1265 µM,0.567
same,relative viability,NCI-H1915; first compound 0.4 µM,0.698
same,relative viability,NCI-H1915; first compound 1.265 µM,0.419
same,relative viability,NCI-H1915; first compound 4 µM,0.198
same,relative viability,NCI-H647; first compound 0.04 µM,1.1
same,relative viability,NCI-H647; first compound 0.1265 µM,0.709
same,relative viability,NCI-H647; first compound 0.4 µM,0.498
same,relative viability,NCI-H647; first compound 1.265 µM,0.141
same,relative viability,NCI-H647; first compound 4 µM,0.0972
same,relative viability,SK-LU-1; first compound 0.04 µM,0.841
same,relative viability,SK-LU-1; first compound 0.1265 µM,0.784
same,relative viability,SK-LU-1; first compound 0.4 µM,0.791
same,relative viability,SK-LU-1; first compound 1.265 µM,0.0557
same,relative viability,SK-LU-1; first compound 4 µM,0.0951
same,relative viability,PC-3 [JPC-3]; first compound 0.04 µM,0.781
same,relative viability,PC-3 [JPC-3]; first compound 0.1265 µM,0.877
same,relative viability,PC-3 [JPC-3]; first compound 0.4 µM,0.942
same,relative viability,PC-3 [JPC-3]; first compound 1.265 µM,0.644
same,relative viability,PC-3 [JPC-3]; first compound 4 µM,0.499
same,relative viability,NCI-H1755; first compound 0.04 µM,1.01
same,relative viability,NCI-H1755; first compound 0.1265 µM,0.991
same,relative viability,NCI-H1755; first compound 0.4 µM,0.922
same,relative viability,NCI-H1755; first compound 1.265 µM,0.59
same,relative viability,NCI-H1755; first compound 4 µM,0.455
same,relative viability,HCC-15; first compound 0.04 µM,0.692
same,relative viability,HCC-15; first compound 0.4 µM,0.532
same,relative viability,HCC-15; first compound 1.265 µM,0.331
same,relative viability,HCC-15; first compound 4 µM,0.299
same,relative viability,NCI-H2228; first compound 0.04 µM,1.13
same,relative viability,NCI-H2228; first compound 0.1265 µM,0.671
same,relative viability,NCI-H2228; first compound 0.4 µM,0.667
same,relative viability,NCI-H2228; first compound 1.265 µM,0.557
same,relative viability,NCI-H2228; first compound 4 µM,0.308
same,relative viability,NCI-H2347; first compound 0.04 µM,0.782
same,relative viability,NCI-H2347; first compound 0.1265 µM,0.691
same,relative viability,NCI-H2347; first compound 0.4 µM,0.571
same,relative viability,NCI-H2347; first compound 1.265 µM,0.316
same,relative viability,NCI-H2347; first compound 4 µM,0.286
same,relative viability,SW 1573; first compound 0.04 µM,0.984
same,relative viability,SW 1573; first compound 0.1265 µM,0.756
same,relative viability,SW 1573; first compound 0.4 µM,0.827
same,relative viability,SW 1573; first compound 1.265 µM,0.536
same,relative viability,SW 1573; first compound 4 µM,0.239
same,relative viability,LC-2-ad; first compound 0.04 µM,0.486
same,relative viability,LC-2-ad; first compound 0.1265 µM,0.58
same,relative viability,LC-2-ad; first compound 0.4 µM,0.376
same,relative viability,LC-2-ad; first compound 1.265 µM,0.196
same,relative viability,LC-2-ad; first compound 4 µM,0.175
same,relative viability,LXF-289; first compound 0.04 µM,0.964
same,relative viability,LXF-289; first compound 0.1265 µM,0.975
same,relative viability,LXF-289; first compound 0.4 µM,0.863
same,relative viability,LXF-289; first compound 1.265 µM,0.731
same,relative viability,LXF-289; first compound 4 µM,0.29
same,relative viability,NCI-H2126; first compound 0.04 µM,0.892
same,relative viability,NCI-H2126; first compound 0.1265 µM,0.733
same,relative viability,NCI-H2126; first compound 0.4 µM,0.843
same,relative viability,NCI-H2126; first compound 1.265 µM,0.578
same,relative viability,NCI-H2126; first compound 4 µM,0.555
same,relative viability,RERF-LC-KJ; first compound 0.04 µM,0.867
same,relative viability,RERF-LC-KJ; first compound 0.1265 µM,1.06
same,relative viability,RERF-LC-KJ; first compound 0.4 µM,0.981
same,relative viability,RERF-LC-KJ; first compound 1.265 µM,0.275
same,relative viability,RERF-LC-KJ; first compound 4 µM,0.33
same,relative viability,NCI-H1734; first compound 0.04 µM,0.849
same,relative viability,NCI-H1734; first compound 0.1265 µM,0.825
same,relative viability,NCI-H1734; first compound 0.4 µM,0.83
same,relative viability,NCI-H1734; first compound 1.265 µM,0.407
same,relative viability,NCI-H1734; first compound 4 µM,0.233
same,relative viability,NCI-H1792; first compound 0.04 µM,0.656
same,relative viability,NCI-H1792; first compound 0.4 µM,0.708
same,relative viability,NCI-H1792; first compound 1.265 µM,0.622
same,relative viability,NCI-H1792; first compound 4 µM,0.31
same,relative viability,NCI-H1975; first compound 0.04 µM,1.1
same,relative viability,NCI-H1975; first compound 0.1265 µM,0.715
same,relative viability,NCI-H1975; first compound 0.4 µM,0.821
same,relative viability,NCI-H1975; first compound 1.265 µM,0.336
same,relative viability,NCI-H1975; first compound 4 µM,0.266
same,relative viability,HOP-62; first compound 0.04 µM,0.926
same,relative viability,HOP-62; first compound 0.1265 µM,0.841
same,relative viability,HOP-62; first compound 0.4 µM,0.516
same,relative viability,HOP-62; first compound 1.265 µM,0.133
same,relative viability,HOP-62; first compound 4 µM,0.0774
same,relative viability,A-427; first compound 0.04 µM,0.997
same,relative viability,A-427; first compound 0.1265 µM,0.974
same,relative viability,A-427; first compound 0.4 µM,1
same,relative viability,A-427; first compound 1.265 µM,0.854
same,relative viability,A-427; first compound 4 µM,0.784
same,relative viability,HCC-78; first compound 0.04 µM,0.799
same,relative viability,HCC-78; first compound 0.1265 µM,0.761
same,relative viability,HCC-78; first compound 0.4 µM,0.465
same,relative viability,HCC-78; first compound 1.265 µM,0.285
same,relative viability,HCC-78; first compound 4 µM,0.242
